According to patent US7776557B2, “Method for monitoring tocolytic treatment” (Diagnostic Technologies Ltd., priority 2006, dated 2010):

Test system: PP13
Experiment: PP13 level in maternal venous serum of pregnant women under tocolytic treatment, solid-phase sandwich ELISA
Format: in vivo, human
Details: Example V: repeated administrations, compared with normal
Description: In all experiments, PP13 was measured (blinded to pregnancy outcome) in maternal venous serum by solid-phase sandwich ELISA assay. PP13 level was calibrated according to standard curves prepared from calibrated standards of recombinant PP13. Concentrations are given in pg PP13/ml serum.
This clinical study was approved by the medical center internal review ethical committee, and all women enrolled in the study provided informed consent to allow the use of a small volume of their blood to determine the level of PP13.

`COC(=O)C1=C(C)NC(C)=C(C(=O)OC)C1c1ccccc1[N+](=O)[O-]` [nifedipine] was tested, and the “area of elevated PP13 level above normal” value was 5.8 times.
